Test results reported in PubChem BioAssay (NCI).
Several values for one entry are separate records, joined by “and”; a condition that tells them apart may be missing. Equal values may be shown once.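 96-well plates; 48 h exposure; 5 concentrations. Endpoints by linear interpolation between flanking doses. Not reached: highest tested concentration assigned. GI50: concentration for 50% inhibition of growth. At the TGI there is no net growth.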

How the values were obtained:
Assay in all cases: DTP human tumour cell line panel, 48 h
UACC-62 melanoma = system: UACC-62 melanoma
HCT-15 colon = system: HCT-15 colon
ACHN renal = system: ACHN renal
SF-295 CNS = system: SF-295 CNS
SW-620 colon = system: SW-620 colon
SK-MEL-28 melanoma = system: SK-MEL-28 melanoma
SNB-75 CNS = system: SNB-75 CNS
OVCAR-5 ovarian = system: OVCAR-5 ovarian
DMS 114 small cell lung = system: DMS 114 small cell lung
LXFL 529 NSCLC = system: LXFL 529 NSCLC

Compound | GI50 (UACC-62 melanoma) | TGI (UACC-62 melanoma) | GI50 (HCT-15 colon) | TGI (HCT-15 colon) | GI50 (ACHN renal) | TGI (ACHN renal) | GI50 (SF-295 CNS) | TGI (SF-295 CNS) | GI50 (SW-620 colon) | TGI (SW-620 colon) | GI50 (SK-MEL-28 melanoma) | TGI (SK-MEL-28 melanoma) | GI50 (SNB-75 CNS) | TGI (SNB-75 CNS) | GI50 (OVCAR-5 ovarian) | TGI (OVCAR-5 ovarian) | TGI (DMS 114 small cell lung) | TGI (LXFL 529 NSCLC) | GI50 (DMS 114 small cell lung)
COc1cc(NC(C)CCCN2C(=O)c3ccccc3C2=O)c2ncccc2c1OC (stereo not drawn) | 35.9 µM | > 100 µM | 28.4 µM | > 100 µM | 29.9 µM | > 100 µM | 21.1 µM | 86.5 µM | 35.3 µM | > 100 µM | 37.8 µM | > 100 µM | 54.4 µM | > 100 µM | 82.6 µM | > 100 µM | – | – | –
Oc1cccc(-c2nc(-c3ccccc3)[nH]c2-c2ccncc2)c1 | 1.59 µM | > 25 µM | 7.36 µM | > 20.3 µM | 9.08 µM | > 25 µM | 14.7 µM | > 25 µM | 9.39 µM | > 23.4 µM | 2.03 µM | > 18.5 µM | 9.93 µM | > 23.7 µM | 16.9 µM | > 25 µM | – | – | –
COC1=CC2CCN3Cc4cc5c(cc4C(C1O)C23)OCC5 (stereo not drawn) | 2.05 µM | 11.1 µM | 1.31 µM | 8.49 µM | 0.306 µM | 2.31 µM | 3.88 µM | 24.4 µM | 5.21 µM | > 100 µM | 3.46 µM | > 24.2 µM | 1.24 µM | 6.24 µM | 2.48 µM | 22.8 µM | – | – | –
Cc1cc2c(cc1Cl)SC(C(=O)c1ccc(Cl)c(Cl)c1)NS2(=O)=O (stereo not drawn) | 22 µM | 42.9 µM | 28.7 µM | 76.1 µM | 29.8 µM | 85.6 µM | 34.9 µM | > 100 µM | 27.6 µM | 72.9 µM | 30.4 µM | 88.9 µM | 31.3 µM | 81.1 µM | 49.2 µM | > 100 µM | – | – | –
CNCCNc1nc2ccccc2c2c(=O)c3cccc(C)c3sc12 | 1.15 µM | 3.39 µM | 1.13 µM | 2.67 µM | 1.7 µM | 7.11 µM | 5.54 µM | 12.1 µM | 0.915 µM | 1.92 µM | 4.08 µM | 10.5 µM | 1.14 µM | 8.49 µM | 3.91 µM | 10.6 µM | – | – | –
N=C1/C(=C2\Nc3ccccc3S2)CC(=O)N1c1ccc(SC(F)F)cc1 | 24 µM | > 100 µM | 0.347 µM | > 100 µM | 6.98 µM | > 100 µM | 1.1 µM | 9.32 µM | 5.37 µM | > 100 µM | 4.38 µM | > 100 µM | 0.17 µM | 1.15 µM | 8.88 µM | 79.4 µM | – | – | –
O=C1NC(=O)C(c2c[nH]c3ccccc23)=C1c1ccccc1 | > 25 µM | > 25 µM | > 25 µM | > 25 µM | > 25 µM | > 25 µM | > 25 µM | > 25 µM | > 25 µM | > 25 µM | > 25 µM | > 25 µM | 10.3 µM | > 25 µM | > 25 µM | > 25 µM | – | – | –
O=c1[nH]c(SCc2ccccc2[N+](=O)[O-])nc2nc[nH]c12 | – | > 100 µM | – | > 100 µM | – | > 100 µM | – | > 100 µM | – | > 100 µM | – | > 100 µM | > 100 µM and 49.5 µM | > 100 µM | – | > 100 µM | – | – | –
N#Cc1cn(-c2c3ccccc3nc3ccccc23)c(=O)[nH]c1=O | – | 38.8 µM | – | 31.9 µM | – | 34.8 µM | – | 23.8 µM | – | 38 µM | – | 31.4 µM | – | 33.3 µM | – | 32.9 µM | 35.4 µM | – | –
CC12CC(=O)C3C(CCC4=CC(=O)CCC43C)C1CC=C2CC(=O)O (stereo not drawn) | – | > 100 µM | – | > 100 µM | – | > 100 µM | – | > 100 µM | – | > 100 µM | – | > 100 µM | – | > 100 µM | – | > 100 µM | – | – | –
NCC1(N2CCOCC2)C2CCCC21CNc1ccccc1 (stereo not drawn) | – | > 100 µM | – | – | – | > 100 µM | – | > 100 µM | – | > 100 µM | – | > 100 µM | – | > 100 µM | – | > 100 µM | > 100 µM | > 100 µM | –
Cc1cc(C#Cc2ccccc2)ccc1-n1c(/C=C/c2cc(O)ccc2O)nc2ccccc2c1=O | 1.52 µM | 2.86 µM | 1.03 µM | 2.21 µM | 1.44 µM | 2.75 µM | 1.35 µM | 3.82 µM | 1.71 µM | 3.51 µM | 1.53 µM | 2.87 µM | 1.3 µM | 2.78 µM | 1.39 µM | 2.7 µM | – | – | –
OCc1ccc(N(Cc2ccc(F)cc2)CC2CCC2)cc1Cl | 1.57 µM | 8.34 µM | 11.7 µM | 25 µM | 13 µM | 26 µM | 4.06 µM | 17.5 µM | 7.02 µM | 21 µM | 14.8 µM | 28.3 µM | 12.4 µM | 25.3 µM | 1.13 µM | 4.25 µM | – | – | –
O=C1/C(=C/c2ccccc2[N+](=O)[O-])COc2ccc(O)c(O)c21 | 0.864 µM | 2.4 µM | 0.286 µM | 1.15 µM | 0.278 µM | 0.863 µM | 3.26 µM | 11.1 µM | 0.353 µM | 1.44 µM | 1.33 µM | 2.97 µM | 1.46 µM | 6.17 µM | 1.69 µM | 3.66 µM | – | – | –
N#Cc1ccc(/C=C/C(=O)c2ccccc2)cc1 | 13.5 µM and 14 µM | 26.6 µM and 27.5 µM | 7.13 µM and 3.28 µM | 18.7 µM and 13.5 µM | 12.3 µM and 16.2 µM | 24.8 µM and 29.8 µM | 16.4 µM and 11.8 µM | 32.1 µM and 25.4 µM | 2.72 µM and 1.77 µM | 7.73 µM and 3.45 µM | 15.5 µM and 5.18 µM | 28.8 µM and 14.9 µM | 14.5 µM and 13.9 µM | 27.6 µM and 27.5 µM | 16.6 µM and 14.6 µM | 31.1 µM and 30 µM | – | – | –
CCc1ccc([O-])c(C=NCCCN(C)CCCN=Cc2cc(C)ccc2[O-])c1.[Co+3].[N-]=[N+]=[N-] | 50 µg/mL and 78.2 µg/mL | 50 µg/mL and > 150 µg/mL | 29.5 µg/mL and 35.9 µg/mL | 50 µg/mL and > 150 µg/mL | 50 µg/mL | 50 µg/mL | 28.1 µg/mL and 16.9 µg/mL | 50 µg/mL and 48.1 µg/mL | 50 µg/mL and > 150 µg/mL | 50 µg/mL and > 150 µg/mL | 50 µg/mL and 91.8 µg/mL | 50 µg/mL and > 150 µg/mL | 1.38 µg/mL and 10 µg/mL | – | 50 µg/mL and 137 µg/mL | 50 µg/mL and > 150 µg/mL | > 150 µg/mL | – | 136 µg/mL
